Test results: ChEMBL document CHEMBL3997836, “Leupeptazin, a highly modified tripeptide isolated from cultures of a Streptomyces sp. inhibits cathepsin K” (Bioorg Med Chem Lett, 2017)

Molecular target: T1, Cathepsin K (Homo sapiens, UniProt P43235)
T1 sequence (P43235 whole entry): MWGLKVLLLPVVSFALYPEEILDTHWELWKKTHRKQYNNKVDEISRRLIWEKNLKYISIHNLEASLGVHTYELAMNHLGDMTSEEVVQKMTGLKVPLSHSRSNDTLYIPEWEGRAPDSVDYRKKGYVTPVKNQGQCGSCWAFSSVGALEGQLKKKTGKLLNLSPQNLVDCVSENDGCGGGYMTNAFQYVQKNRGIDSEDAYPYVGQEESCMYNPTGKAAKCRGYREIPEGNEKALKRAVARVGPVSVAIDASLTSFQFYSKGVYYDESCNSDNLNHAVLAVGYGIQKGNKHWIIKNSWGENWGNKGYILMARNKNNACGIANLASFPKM
Assay: Competitive inhibition of recombinant human cathepsin K expressed in Pichia pastoris using Z-FR-MCA as substrate by Dixon plot method

Row | Ki [µM] | Structure (SMILES)
1 | 44 | CC(=O)N[C@@H](CC(C)C)C(=O)N[C@@H](CC(C)C)C(=O)N[C@H]1CCCN2C(N)=NC(=N)N[C@@H]12
2 | 0.024 | CC(=O)N[C@@H](CC(C)C)C(=O)N[C@@H](CC(C)C)C(=O)N[C@H](C=O)CCCNC(=N)N [LEUPEPTIN]
